{"source": "patent US20260262643A1", "about": "“HERBICIDAL BENZOXAZINES” (FMC CORPORATION, priority 2022, published 2026)", "key": {"green foxtail [1]": {"system": "green foxtail", "test": "Test C postemergence", "assay_type": "in vivo, Setaria viridis", "conditions": "10 days", "method_in_brief": "(§1)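 Test material, in non-phytotoxic solvent with surfactant, was sprayed on the soil directly after seeding (preemergence) or on young plants of 2–10 cm with one to two leaves (postemergence). Greenhouse, 10 days; 0–100 visual control scale.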"}, "ryegrass, Italian [2]": {"system": "ryegrass, Italian", "test": "Test C preemergence", "assay_type": "in vivo, Lolium multiflorum", "conditions": "0 to 100 scale (0 no effect, 100 complete control)", "method_in_brief": "as §1"}, "oat, wild [3]": {"system": "oat, wild", "test": "Test C postemergence", "assay_type": "in vivo, Avena fatua", "conditions": "10 days", "method_in_brief": "as §1"}, "pigweed, palmer [4]": {"system": "pigweed, palmer", "test": "Test C postemergence", "assay_type": "in vivo, Amaranthus palmeri", "conditions": "10 days", "method_in_brief": "as §1"}, "ducksalad": {"system": "ducksalad", "test": "Test D flooded paddy test", "assay_type": "in vivo, Heteranthera limosa", "conditions": "250 g ai/ha, applied to paddy water, visual rating after 13 to 14 days, scale 0 to 100 (0 no effect, 100 complete control)", "method_in_brief": "(§2)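 Plants grown to the 2-leaf stage; pots flooded to 3 cm above soil at treatment and held at that depth throughout. Test compounds applied directly to the paddy water. After 13 to 14 days in a greenhouse, response was rated visually versus controls on a 0 (no effect) to 100 (complete control) scale.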"}, "horseweed": {"system": "horseweed", "test": "Test C postemergence", "assay_type": "in vivo, Erigeron canadensis", "conditions": "10 days", "method_in_brief": "as §1"}, "barnyardgrass [5]": {"system": "barnyardgrass", "test": "Test C postemergence", "assay_type": "in vivo, Echinochloa crusgalli", "conditions": "10 days", "method_in_brief": "as §1"}, "barnyardgrass [6]": {"system": "barnyardgrass", "test": "Test D flooded paddy test", "assay_type": "in vivo, Echinochloa crus-galli", "conditions": "250 g ai/ha, applied to paddy water, visual rating after 13 to 14 days, scale 0 to 100 (0 no effect, 100 complete control)", "method_in_brief": "as §2"}, "pigweed, palmer [7]": {"system": "pigweed, palmer", "test": "Test C preemergence", "assay_type": "in vivo, Amaranthus palmeri", "conditions": "Preemergence, 500 g ai/ha; visual rating after 10 days, 0 to 100 scale (0 no effect, 100 complete control)", "method_in_brief": "as §1"}, "corn [8]": {"system": "corn", "test": "Test C preemergence", "assay_type": "in vivo, Zea mays", "conditions": "0 to 100 scale (0 no effect, 100 complete control)", "method_in_brief": "as §1"}, "ragweed [9]": {"system": "ragweed", "test": "Test C postemergence", "assay_type": "in vivo, Ambrosia artemisiifolia", "conditions": "10 days", "method_in_brief": "as §1"}, "kochia [10]": {"system": "kochia", "test": "Test C preemergence", "assay_type": "in vivo, Bassia scoparia", "conditions": "0 to 100 scale (0 no effect, 100 complete control)", "method_in_brief": "as §1"}, "oat, wild [11]": {"system": "oat, wild", "test": "Test C preemergence", "assay_type": "in vivo, Avena fatua", "conditions": "0 to 100 scale (0 no effect, 100 complete control)", "method_in_brief": "as §1"}, "soybean [12]": {"system": "soybean", "test": "Test C postemergence", "assay_type": "in vivo, Glycine max", "conditions": "10 days", "method_in_brief": "as §1"}, "blackgrass [13]": {"system": "blackgrass", "test": "Test C postemergence", "assay_type": "in vivo, Alopecurus myosuroides", "conditions": "10 days", "method_in_brief": "as §1"}, "corn [14]": {"system": "corn", "test": "Test C postemergence", "assay_type": "in vivo, Zea mays", "conditions": "10 days", "method_in_brief": "as §1"}, "galium": {"system": "galium", "test": "Test C postemergence", "assay_type": "in vivo, Galium aparine", "conditions": "10 days", "method_in_brief": "as §1"}, "wheat [15]": {"system": "wheat", "test": "Test C preemergence", "assay_type": "in vivo, Triticum aestivum", "conditions": "0 to 100 scale (0 no effect, 100 complete control)", "method_in_brief": "as §1"}, "rice": {"system": "rice", "test": "Test D flooded paddy test", "assay_type": "in vivo, Oryza sativa", "conditions": "250 g ai/ha, applied to paddy water, visual rating after 13 to 14 days, scale 0 to 100 (0 no effect, 100 complete control)", "method_in_brief": "as §2"}, "ragweed [16]": {"system": "ragweed", "test": "Test C preemergence", "assay_type": "in vivo, Ambrosia artemisiifolia", "conditions": "0 to 100 scale (0 no effect, 100 complete control)", "method_in_brief": "as §1"}, "sedge, umbrella": {"system": "sedge, umbrella", "test": "Test D flooded paddy test", "assay_type": "in vivo, Cyperus difformis", "conditions": "250 g ai/ha, applied to paddy water, visual rating after 13 to 14 days, scale 0 to 100 (0 no effect, 100 complete control)", "method_in_brief": "as §2"}, "soybean [17]": {"system": "soybean", "test": "Test C preemergence", "assay_type": "in vivo, Glycine max", "conditions": "0 to 100 scale (0 no effect, 100 complete control)", "method_in_brief": "as §1"}, "ryegrass, Italian [18]": {"system": "ryegrass, Italian", "test": "Test C postemergence", "assay_type": "in vivo, Lolium multiflorum", "conditions": "10 days", "method_in_brief": "as §1"}, "green foxtail [19]": {"system": "green foxtail", "test": "Test C preemergence", "assay_type": "in vivo, Setaria viridis", "conditions": "0 to 100 scale (0 no effect, 100 complete control)", "method_in_brief": "as §1"}, "barnyardgrass [20]": {"system": "barnyardgrass", "test": "Test C preemergence", "assay_type": "in vivo, Echinochloa crusgalli", "conditions": "0 to 100 scale (0 no effect, 100 complete control)", "method_in_brief": "as §1"}, "wheat [21]": {"system": "wheat", "test": "Test C postemergence", "assay_type": "in vivo, Triticum aestivum", "conditions": "10 days", "method_in_brief": "as §1"}, "blackgrass [22]": {"system": "blackgrass", "test": "Test C preemergence", "assay_type": "in vivo, Alopecurus myosuroides", "conditions": "0 to 100 scale (0 no effect, 100 complete control)", "method_in_brief": "as §1"}, "kochia [23]": {"system": "kochia", "test": "Test C postemergence", "assay_type": "in vivo, Bassia scoparia", "conditions": "10 days", "method_in_brief": "as §1"}, "[24]": {"conditions": "125 g ai/ha, postemergence, 0 to 100 scale, 0 no effect, 100 complete control"}, "[25]": {"conditions": "Postemergence, 500 g ai/ha, visual 0 to 100 scale (0 no effect, 100 complete control)"}, "[26]": {"conditions": "Preemergence, 500 g ai/ha, visual rating after 10 days"}, "[27]": {"conditions": "Test C, preemergence, 125 g ai/ha"}}, "data": [{"smiles": "Cc1cccc2c1O[C@H](C)CN2C(=O)c1cccc(-c2ncn(C(C)C)n2)c1", "note": "[Compound 221]", "values": [{"measurement": "Plant response rating, Foxtail, Green", "setting": "green foxtail [1]; [24]", "result": 0}, {"measurement": "Plant response rating, Foxtail, Green", "setting": "green foxtail [1]; [25]", "result": 0}, {"measurement": "Plant response rating, Ryegrass, Italian", "setting": "ryegrass, Italian [2]; [26]", "result": 0}, {"measurement": "Ryegrass, Italian plant response rating", "setting": "ryegrass, Italian [2]; [27]", "result": 0}, {"measurement": "Plant response rating, Oat, Wild", "setting": "oat, wild [3]; [24]", "result": 0}, {"measurement": "Plant response rating, Oat, Wild", "setting": "oat, wild [3]; [25]", "result": 0}, {"measurement": "Plant response rating, Pigweed, Palmer", "setting": "pigweed, palmer [4]; [24]", "result": 0}, {"measurement": "Plant response rating, Pigweed, Palmer", "setting": "pigweed, palmer [4]; [25]", "result": 0}, {"measurement": "Plant response rating, Ducksalad (Flood)", "setting": "ducksalad", "result": 0}, {"measurement": "Plant response rating, Horseweed", "setting": "horseweed; [24]", "result": 0}, {"measurement": "Plant response rating, Horseweed", "setting": "horseweed; [25]", "result": 20}, {"measurement": "Plant response rating, Barnyardgrass", "setting": "barnyardgrass [5]; [24]", "result": 0}, {"measurement": "Plant response rating, Barnyardgrass", "setting": "barnyardgrass [5]; [25]", "result": 10}, {"measurement": "Plant response rating, Barnyardgrass (Flood)", "setting": "barnyardgrass [6]", "result": 0}, {"measurement": "Plant response rating, Pigweed, Palmer", "setting": "pigweed, palmer [7]", "result": 0}, {"measurement": "Plant response rating, Corn", "setting": "corn [8]; [26]", "result": 0}, {"measurement": "Corn plant response rating", "setting": "corn [8]; [27]", "result": 0}, {"measurement": "Plant response rating, Ragweed", "setting": "ragweed [9]; [24]", "result": 0}, {"measurement": "Plant response rating, Ragweed", "setting": "ragweed [9]; [25]", "result": 0}, {"measurement": "Plant response rating, Kochia", "setting": "kochia [10]; [26]", "result": 0}, {"measurement": "Kochia plant response rating", "setting": "kochia [10]; [27]", "result": 0}, {"measurement": "Plant response rating, Oat, Wild", "setting": "oat, wild [11]; [26]", "result": 0}, {"measurement": "Oat, Wild plant response rating", "setting": "oat, wild [11]; [27]", "result": 0}, {"measurement": "Plant response rating, Soybean", "setting": "soybean [12]; [24]", "result": 0}, {"measurement": "Plant response rating, Soybean", "setting": "soybean [12]; [25]", "result": 0}, {"measurement": "Plant response rating, Blackgrass", "setting": "blackgrass [13]; [24]", "result": 0}, {"measurement": "Plant response rating, Blackgrass", "setting": "blackgrass [13]; [25]", "result": 0}, {"measurement": "Plant response rating, Corn", "setting": "corn [14]; [24]", "result": 0}, {"measurement": "Plant response rating, Corn", "setting": "corn [14]; [25]", "result": 0}, {"measurement": "Plant response rating, Galium", "setting": "galium; [24]", "result": 0}, {"measurement": "Plant response rating, Galium", "setting": "galium; [25]", "result": 0}, {"measurement": "Plant response rating, Wheat", "setting": "wheat [15]; [26]", "result": 0}, {"measurement": "Wheat plant response rating", "setting": "wheat [15]; [27]", "result": 0}, {"measurement": "Plant response rating, Rice (Flood)", "setting": "rice", "result": 0}, {"measurement": "Plant response rating, Ragweed", "setting": "ragweed [16]; [26]", "result": 0}, {"measurement": "Ragweed plant response rating", "setting": "ragweed [16]; [27]", "result": 0}, {"measurement": "Plant response rating, Sedge, Umbrella (Flood)", "setting": "sedge, umbrella", "result": 0}, {"measurement": "Plant response rating, Soybean", "setting": "soybean [17]; [26]", "result": 0}, {"measurement": "Soybean plant response rating", "setting": "soybean [17]; [27]", "result": 0}, {"measurement": "Plant response rating, Ryegrass, Italian", "setting": "ryegrass, Italian [18]; [24]", "result": 0}, {"measurement": "Plant response rating, Ryegrass, Italian", "setting": "ryegrass, Italian [18]; [25]", "result": 0}, {"measurement": "Plant response rating, Foxtail, Green", "setting": "green foxtail [19]; [26]", "result": 0}, {"measurement": "Foxtail, Green plant response rating", "setting": "green foxtail [19]; [27]", "result": 0}, {"measurement": "Plant response rating, Barnyardgrass", "setting": "barnyardgrass [20]; [26]", "result": 0}, {"measurement": "Barnyardgrass plant response rating", "setting": "barnyardgrass [20]; [27]", "result": 0}, {"measurement": "Plant response rating, Wheat", "setting": "wheat [21]; [24]", "result": 0}, {"measurement": "Plant response rating, Wheat", "setting": "wheat [21]; [25]", "result": 0}, {"measurement": "Plant response rating, Blackgrass", "setting": "blackgrass [22]; [26]", "result": 0}, {"measurement": "Blackgrass plant response rating", "setting": "blackgrass [22]; [27]", "result": 0}, {"measurement": "Plant response rating, Kochia", "setting": "kochia [23]; [24]", "result": 0}, {"measurement": "Plant response rating, Kochia", "setting": "kochia [23]; [25]", "result": 0}]}]}
